Measured values from PubChem BioAssay (NCI).
Where “and” joins values, the source holds several entries; their conditions need not be identical. Equal entries are not always repeated.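 Results reflect a 48-hour exposure of cells in 96-well plates to compound at five concentrations. GI50 is the concentration that inhibits growth by half. TGI denotes the concentration required for complete inhibition of growth.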

Tests used:
Assay in all cases: NCI-60 cell line screen, 48 h
[1] = tested on: HCC-2998 colon
[2] = tested on: EKVX NSCLC
[3] = tested on: SK-OV-3 ovarian
[4] = tested on: RXF 393 renal
[5] = tested on: MDA-MB-231 breast
[6] = tested on: ACHN renal
[7] = tested on: NCI-H23 lung
[8] = tested on: A498 renal
[9] = tested on: IGROV1 ovarian
[10] = tested on: SK-MEL-2 melanoma
[11] = tested on: U251 CNS
[12] = tested on: MOLT-4 leukemia
[13] = tested on: HOP-62 NSCLC

Structure (SMILES): O=C1CC(CC(=O)c2ccc(Br)cc2)C(=O)/C1=C(/O)c1ccc(Br)cc1 (stereo unspecified)
- TGI [1]: > 100 µM
- TGI [2]: > 100 µM
- TGI [3]: > 100 µM
- TGI [4]: > 100 µM
- TGI [5]: > 100 µM
- TGI [6]: > 100 µM
- TGI [7]: > 100 µM
- TGI [8]: > 100 µM
- TGI [9]: > 100 µM
- TGI [10]: > 100 µM
- TGI [11]: > 100 µM
- TGI [12]: > 100 µM
- TGI [13]: > 100 µM

Structure (SMILES): CC1=CC[C@@]2(C)CC[C@](O)(C(C)C)C2C(OC(=O)c2ccccc2)C1 (stereo partly specified)
- TGI [1]: 25 µM
- TGI [2]: 32.3 µM
- TGI [3]: 28.8 µM
- TGI [4]: 27.3 µM
- TGI [5]: 37.6 µM
- TGI [6]: 32.1 µM
- TGI [7]: 38.9 µM
- TGI [8]: 50.8 µM
- TGI [9]: 30.6 µM
- TGI [10]: 32.2 µM
- TGI [11]: 60 µM
- TGI [12]: 43.5 µM
- TGI [13]: 33.7 µM

Structure (SMILES): COc1ccc(OC)c2c1C=CC(Br)=CC2
- TGI [1]: 0.449 µM
- TGI [2]: > 1 µM
- TGI [3]: 0.358 µM
- TGI [5]: 0.958 µM
- TGI [6]: > 1 µM
- TGI [7]: > 1 µM
- TGI [8]: > 1 µM
- TGI [9]: > 1 µM
- TGI [10]: 0.247 µM
- TGI [11]: > 1 µM
- TGI [12]: 0.478 µM
- TGI [13]: 0.915 µM

Structure (SMILES): COC(=O)c1cc(NC(=O)Cc2c[nH]c3ccccc23)cn1C
- TGI [1]: > 100 µM
- TGI [2]: > 100 µM
- TGI [3]: > 100 µM
- TGI [4]: > 100 µM
- TGI [5]: > 100 µM
- TGI [6]: > 100 µM
- TGI [7]: > 100 µM
- TGI [8]: > 100 µM
- TGI [9]: > 100 µM
- TGI [10]: > 100 µM
- TGI [11]: > 100 µM
- TGI [12]: > 100 µM
- TGI [13]: > 100 µM

Structure (SMILES): CCOC(=O)/C=C(/C(=O)OCC)n1ccc(=O)n(Cc2cnnn2COCCOC(C)=O)c1=O
- TGI [1]: 31.5 µM
- TGI [2]: 33.8 µM
- TGI [3]: > 100 µM
- TGI [4]: 39 µM
- TGI [5]: 38.7 µM
- TGI [6]: 22.1 µM
- TGI [7]: 33.3 µM
- TGI [8]: 65 µM
- TGI [9]: 39.3 µM
- TGI [10]: 41.9 µM
- TGI [11]: 37.8 µM
- TGI [12]: 23.4 µM
- TGI [13]: > 100 µM

Structure (SMILES): COc1ccc2c(c1)CCCN1CCc3ccccc3C21 (stereo unspecified)
- TGI [1]: > 100 µM
- TGI [2]: > 100 µM
- TGI [3]: > 100 µM
- TGI [4]: 73 µM
- TGI [5]: 72.2 µM
- TGI [6]: > 100 µM
- TGI [7]: > 100 µM
- TGI [8]: > 100 µM
- TGI [9]: > 100 µM
- TGI [10]: > 100 µM
- TGI [11]: 95.4 µM
- TGI [12]: > 100 µM
- TGI [13]: > 100 µM

Structure (SMILES): O=C1CCc2ccc(O)c(c2)Oc2ccc(cc2)C(Sc2ccccc2)CCO1 (stereo unspecified)
- TGI [1]: 32.9 µM
- TGI [2]: 28.5 µM
- TGI [3]: > 100 µM
- TGI [4]: 35.4 µM
- TGI [5]: 19.2 µM
- TGI [6]: 32.1 µM
- TGI [7]: 27.3 µM
- TGI [8]: 31.8 µM
- TGI [9]: 27.6 µM
- TGI [10]: 37.3 µM
- TGI [11]: 33 µM
- TGI [12]: > 100 µM
- TGI [13]: 30.9 µM

Structure (SMILES): CC(=O)NCC1OC2COC(c3ccccc3)OC2C(NC(=O)c2ccccc2)C1OC(=O)c1ccccc1 (stereo unspecified)
- TGI [1]: > 100 µM
- TGI [2]: > 100 µM
- TGI [3]: > 100 µM
- TGI [4]: > 100 µM
- TGI [5]: > 100 µM
- TGI [6]: > 100 µM
- TGI [7]: > 100 µM
- TGI [8]: > 100 µM
- TGI [10]: > 100 µM
- TGI [11]: > 100 µM
- TGI [12]: > 100 µM
- TGI [13]: > 100 µM

Structure (SMILES): CC1=C(O)c2ccccc2C(=O)C1=O
- TGI [1]: > 100 µM
- TGI [2]: > 100 µM
- TGI [3]: > 100 µM
- TGI [4]: > 100 µM
- TGI [5]: > 100 µM
- TGI [6]: > 100 µM
- TGI [7]: > 100 µM
- TGI [8]: > 100 µM
- TGI [9]: > 100 µM
- TGI [10]: > 100 µM
- TGI [11]: > 90.9 µM
- TGI [12]: > 100 µM
- TGI [13]: > 100 µM

Structure (SMILES): NC1CCC(N(CC(=O)O)CC(=O)O)C(N(CC(=O)O)CC(=O)O)C1 (stereo unspecified)
- TGI [1]: > 100 µM
- TGI [3]: > 100 µM
- TGI [4]: > 100 µM
- TGI [5]: > 100 µM
- TGI [6]: > 100 µM
- TGI [7]: > 100 µM
- TGI [8]: > 100 µM
- TGI [9]: > 100 µM
- TGI [10]: > 100 µM
- TGI [11]: > 100 µM
- TGI [12]: > 100 µM
- TGI [13]: > 100 µM

Structure (SMILES): CSc1nc2c(c(=O)n1C)N=C(c1ccc([N+](=O)[O-])cc1)CC(c1ccccc1)N2 (stereo unspecified)
- TGI [1]: > 100 µM
- TGI [2]: > 100 µM
- TGI [3]: > 100 µM
- TGI [4]: > 100 µM
- TGI [5]: > 100 µM
- TGI [6]: > 100 µM
- TGI [7]: > 100 µM
- TGI [8]: > 100 µM
- TGI [9]: > 100 µM
- TGI [10]: > 100 µM
- TGI [11]: > 100 µM
- TGI [12]: > 100 µM
- TGI [13]: > 100 µM

Structure (SMILES): CCOC(=O)c1nc2cc(C(F)(F)F)ccc2nc1Nc1ccc(C(=O)OC)s1
- TGI [1]: > 100 µM
- TGI [2]: > 100 µM
- TGI [3]: > 100 µM
- TGI [4]: 50.8 µM
- TGI [5]: 94.6 µM
- TGI [6]: > 100 µM
- TGI [7]: > 100 µM
- TGI [8]: 81.6 µM
- TGI [9]: > 100 µM
- TGI [10]: 43.5 µM
- TGI [11]: > 100 µM
- TGI [12]: > 100 µM
- TGI [13]: > 100 µM

Structure (SMILES): CCC1(c2ccc(N3C(=O)c4cc(OC)c(OC)cc4C3=O)cc2)CCC(=O)NC1=O (stereo unspecified)
- TGI [1]: > 10 µM
- TGI [2]: > 10 µM
- TGI [3]: > 10 µM
- TGI [4]: > 10 µM
- TGI [5]: > 10 µM
- TGI [6]: > 10 µM
- TGI [7]: > 10 µM
- TGI [8]: > 10 µM
- TGI [9]: > 10 µM
- TGI [10]: > 10 µM
- TGI [11]: > 10 µM
- TGI [12]: > 10 µM
- TGI [13]: > 10 µM

Structure (SMILES): COc1ccc(N=NC(=O)NC(CC(C)C)C(=O)NCC(=O)O)cc1 (stereo unspecified)
- TGI [1]: > 87.5 µM
- TGI [2]: > 100 µM
- TGI [3]: > 100 µM
- TGI [4]: > 100 µM
- TGI [5]: > 100 µM
- TGI [6]: > 100 µM
- TGI [7]: > 100 µM
- TGI [8]: > 100 µM
- TGI [9]: > 100 µM
- TGI [10]: > 100 µM
- TGI [11]: > 100 µM
- TGI [12]: > 100 µM
- TGI [13]: > 100 µM

Structure (SMILES): COc1cccc(C2c3cc4c(cc3OC(NNS(=O)(=O)c3ccc(C)cc3)C2C)OCO4)c1OC (stereo unspecified)
- TGI [1]: > 100 µM
- TGI [2]: > 100 µM
- TGI [3]: 7.83 µM
- TGI [4]: 21.6 µM
- TGI [5]: 27.6 µM
- TGI [6]: 9.85 µM
- TGI [7]: > 100 µM
- TGI [8]: 6.42 µM
- TGI [9]: 15.3 µM
- TGI [10]: 7.18 µM
- TGI [11]: 16.9 µM
- TGI [12]: 9.02 µM
- TGI [13]: 9.06 µM

Structure (SMILES): COc1ccc(COC(=O)NCC(=O)NC(C)C(=O)NC(Cc2ccccc2)C(=O)OCc2ccccc2)cc1 (stereo unspecified)
- TGI [1]: 64.3 µM and 37.4 µM
- GI50 [2]: 23.4 µM and 48.7 µM
- TGI [2]: 56.6 µM and > 100 µM
- GI50 [3]: 22.9 µM and > 100 µM
- TGI [3]: 42.5 µM and > 100 µM
- TGI [4]: 82.2 µM
- TGI [5]: 46.2 µM and 68.3 µM
- TGI [6]: 44.5 µM and 36.7 µM
- TGI [7]: > 100 µM
- TGI [8]: 38.8 µM and > 100 µM
- TGI [9]: > 100 µM
- GI50 [10]: 35.5 µM and > 100 µM
- TGI [10]: 83.3 µM and > 100 µM
- TGI [11]: 44.3 µM and 47.3 µM
- GI50 [12]: 8.37 µM and 24.5 µM
- TGI [12]: 55.9 µM and 49.3 µM
- TGI [13]: 54.2 µM and 49.4 µM

Structure (SMILES): Clc1ccc(CCN[C@H]2CCCC[C@H]2N2CCCC2)cc1Cl
- TGI [1]: 22.3 µM
- TGI [2]: > 100 µM
- TGI [3]: 78.2 µM
- TGI [5]: > 100 µM
- TGI [6]: > 100 µM
- TGI [7]: 58.8 µM
- TGI [8]: 40.5 µM
- TGI [9]: 35.1 µM
- TGI [10]: 44.1 µM
- TGI [11]: > 100 µM
- TGI [12]: > 100 µM
- TGI [13]: 48.2 µM
